Our source for the IC50 values is patent US11981658B2, “Substituted aminopyridine compounds as EGFR inhibitors” (YUHAN CORPORATION, priority 2021, dated 2024).

Test [1] addresses EGFR wildtype (WT) (Homo sapiens, UniProt P00533). In words: Biochemical EGFR kinase inhibition assay (Lance Ultra TR-FRET), wildtype. Put shortly:
(§1)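 Enzyme reactions lasted 1 hour at room temperature with test compounds between 0.003 and 10 μM, followed by 10 mM EDTA quench.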

In test [2] the target is EGFR L858R/T790M/C797S (Homo sapiens, UniProt P00533, C797S/L858R/T790M). Description: Biochemical EGFR kinase inhibition assay (Lance Ultra TR-FRET), triple mutant L858R/T790M/C797S. The gist of the method:
as §1
(In general: TR-FRET usually uses a lanthanide donor and a delayed reading to cut background.)

The target in test [3] is EGFR Del19/T790M/C797S (Homo sapiens, UniProt P00533, C797S/DEL746-750/T790M). Description: Biochemical EGFR kinase inhibition assay (Lance Ultra TR-FRET), triple mutant del19/T790M/C797S. The gist of the method:
as §1

For test [4], the target named is EGFR L858R/C797S (Homo sapiens, UniProt P00533, C797S/L858R). In words: Biochemical EGFR kinase inhibition assay (Lance Ultra TR-FRET), double mutant L858R/C797S. On the procedure:
Biochemical EGFR kinase assays were conducted using Lance Ultra time-resolved fluorescence resonance energy transfer (TR-FRET) technology from Perkin-Elmer. Compounds of the invention were initially diluted to 20 mM in 100% DMSO for storage and made into kinase buffer solution to create a compound concentration ranging from 0.003 μM and 10 μM.
Each kinase reactions were incubated at room temperature for 1 hour and then stopped by the addition of 4 μL of stop solution (10 mM EDTA). The specific Europium-labeled-anti-phosphopeptide antibody (PerkinElmer, AD0069) diluted in LANCE detection buffer was then added to a final concentration of 2 nM. After 60 minutes incubation at room temperature the LANCE signal was measured on an EnVision Multilabel Reader (Perkin-Elmer). Excitation wavelength was set at 320 nm and emission monitored at 615 nm (donor) and 665 nm (acceptor). The IC50 values were determined using GraphPad prism software (GraphPad Software, Inc., San Diego, CA, USA).

In test [5] the target is EGFR Del19/C797S (Homo sapiens, UniProt P00533, C797S/DEL746-750). In words: Biochemical EGFR kinase inhibition assay (Lance Ultra TR-FRET), double mutant del19/C797S. Put shortly:
as §1

The mark [6] stands for this setting: IC50 L858R/T790M/C797S (nM), 100 μM ATP.
Where [7] appears, read: IC50 Del19/T790M/C797S (nM), 100 μM ATP.
[8] abbreviates: IC50 L858R/C797S (nM), 100 μM ATP.
Where [9] appears, read: IC50 Del19/C797S (nM), 100 μM ATP.
[10] abbreviates: Km ATP, read-out: IC50 WT (nM), Km ATP.
The mark [11] stands for this setting: Km ATP, read-out: IC50 L858R/T790M/C797S (nM), Km ATP.
[12] abbreviates: Km ATP, read-out: IC50 Del19/T790M/C797S (nM), Km ATP.
Setting [13] is: Km ATP, read-out: IC50 L858R/C797S (nM), Km ATP.
[14] abbreviates: Km ATP, read-out: IC50 Del19/C797S (nM), Km ATP.

Like-named read-outs stand apart in the source and are kept apart here.

Sequence of EGFR Del19/C797S (P00533 with tags, fused parts or gaps DEL746-750/C797S): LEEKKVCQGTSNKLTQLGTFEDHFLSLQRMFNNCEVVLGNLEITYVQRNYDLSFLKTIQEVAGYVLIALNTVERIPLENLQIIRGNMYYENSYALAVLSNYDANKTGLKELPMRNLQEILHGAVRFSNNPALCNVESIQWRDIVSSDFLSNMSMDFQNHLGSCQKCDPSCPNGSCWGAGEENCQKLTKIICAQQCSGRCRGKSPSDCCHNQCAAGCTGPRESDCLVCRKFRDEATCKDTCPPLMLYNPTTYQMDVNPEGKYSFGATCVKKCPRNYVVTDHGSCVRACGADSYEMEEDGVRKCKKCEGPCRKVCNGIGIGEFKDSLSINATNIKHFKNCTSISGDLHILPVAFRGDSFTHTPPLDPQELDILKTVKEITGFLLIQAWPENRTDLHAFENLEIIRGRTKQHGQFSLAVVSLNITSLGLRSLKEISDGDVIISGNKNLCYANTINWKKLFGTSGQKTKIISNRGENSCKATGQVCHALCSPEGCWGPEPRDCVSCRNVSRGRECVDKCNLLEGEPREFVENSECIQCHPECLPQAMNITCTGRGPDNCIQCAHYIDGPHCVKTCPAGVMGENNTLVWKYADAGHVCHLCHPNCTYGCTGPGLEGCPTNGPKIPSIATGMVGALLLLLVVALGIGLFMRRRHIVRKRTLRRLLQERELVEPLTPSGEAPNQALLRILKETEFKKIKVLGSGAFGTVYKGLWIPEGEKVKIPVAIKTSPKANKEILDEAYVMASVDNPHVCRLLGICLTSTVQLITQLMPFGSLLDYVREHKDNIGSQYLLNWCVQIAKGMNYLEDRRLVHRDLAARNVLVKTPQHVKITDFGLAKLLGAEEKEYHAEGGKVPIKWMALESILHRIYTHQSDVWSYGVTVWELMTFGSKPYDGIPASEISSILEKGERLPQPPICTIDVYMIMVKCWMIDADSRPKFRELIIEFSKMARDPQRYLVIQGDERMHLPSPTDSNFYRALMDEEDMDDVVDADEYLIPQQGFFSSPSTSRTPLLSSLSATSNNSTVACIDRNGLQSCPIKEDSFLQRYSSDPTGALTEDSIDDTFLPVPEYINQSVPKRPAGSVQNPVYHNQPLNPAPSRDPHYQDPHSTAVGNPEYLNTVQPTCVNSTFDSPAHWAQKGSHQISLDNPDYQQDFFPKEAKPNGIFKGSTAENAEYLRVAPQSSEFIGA
Sequence of EGFR Del19/T790M/C797S (P00533 with tags, fused parts or gaps DEL746-750/T790M/C797S): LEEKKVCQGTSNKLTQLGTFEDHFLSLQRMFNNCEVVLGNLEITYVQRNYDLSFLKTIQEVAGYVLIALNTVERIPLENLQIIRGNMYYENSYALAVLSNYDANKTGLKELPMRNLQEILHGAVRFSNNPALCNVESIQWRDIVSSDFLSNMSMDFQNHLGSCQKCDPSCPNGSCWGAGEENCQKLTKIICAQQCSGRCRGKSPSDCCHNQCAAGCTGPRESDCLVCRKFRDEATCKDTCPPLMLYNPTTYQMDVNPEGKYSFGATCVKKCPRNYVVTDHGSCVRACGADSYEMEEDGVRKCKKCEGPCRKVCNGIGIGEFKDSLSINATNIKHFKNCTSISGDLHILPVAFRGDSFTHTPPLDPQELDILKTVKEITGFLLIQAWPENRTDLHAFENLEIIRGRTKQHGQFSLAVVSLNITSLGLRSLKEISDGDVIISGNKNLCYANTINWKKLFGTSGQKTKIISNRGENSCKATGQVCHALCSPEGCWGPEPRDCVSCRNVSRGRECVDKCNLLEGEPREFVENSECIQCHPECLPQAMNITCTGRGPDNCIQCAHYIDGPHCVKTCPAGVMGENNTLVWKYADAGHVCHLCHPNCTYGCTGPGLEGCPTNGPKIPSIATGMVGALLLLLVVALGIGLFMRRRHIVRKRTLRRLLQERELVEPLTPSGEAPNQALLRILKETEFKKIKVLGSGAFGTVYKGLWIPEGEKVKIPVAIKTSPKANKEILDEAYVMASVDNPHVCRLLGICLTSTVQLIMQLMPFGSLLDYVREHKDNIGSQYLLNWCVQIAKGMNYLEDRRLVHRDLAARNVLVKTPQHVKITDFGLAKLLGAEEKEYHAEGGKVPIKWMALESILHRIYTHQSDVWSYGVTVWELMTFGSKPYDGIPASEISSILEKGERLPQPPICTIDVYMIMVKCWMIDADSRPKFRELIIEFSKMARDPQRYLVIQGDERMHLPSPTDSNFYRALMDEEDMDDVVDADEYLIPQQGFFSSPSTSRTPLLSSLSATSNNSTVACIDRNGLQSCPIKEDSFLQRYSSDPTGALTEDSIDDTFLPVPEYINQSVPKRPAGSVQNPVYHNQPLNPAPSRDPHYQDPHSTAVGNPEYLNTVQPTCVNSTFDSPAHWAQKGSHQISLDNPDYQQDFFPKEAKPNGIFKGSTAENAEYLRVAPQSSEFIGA
Sequence of EGFR L858R/T790M/C797S (P00533 25-1210 T790M/C797S/L858R): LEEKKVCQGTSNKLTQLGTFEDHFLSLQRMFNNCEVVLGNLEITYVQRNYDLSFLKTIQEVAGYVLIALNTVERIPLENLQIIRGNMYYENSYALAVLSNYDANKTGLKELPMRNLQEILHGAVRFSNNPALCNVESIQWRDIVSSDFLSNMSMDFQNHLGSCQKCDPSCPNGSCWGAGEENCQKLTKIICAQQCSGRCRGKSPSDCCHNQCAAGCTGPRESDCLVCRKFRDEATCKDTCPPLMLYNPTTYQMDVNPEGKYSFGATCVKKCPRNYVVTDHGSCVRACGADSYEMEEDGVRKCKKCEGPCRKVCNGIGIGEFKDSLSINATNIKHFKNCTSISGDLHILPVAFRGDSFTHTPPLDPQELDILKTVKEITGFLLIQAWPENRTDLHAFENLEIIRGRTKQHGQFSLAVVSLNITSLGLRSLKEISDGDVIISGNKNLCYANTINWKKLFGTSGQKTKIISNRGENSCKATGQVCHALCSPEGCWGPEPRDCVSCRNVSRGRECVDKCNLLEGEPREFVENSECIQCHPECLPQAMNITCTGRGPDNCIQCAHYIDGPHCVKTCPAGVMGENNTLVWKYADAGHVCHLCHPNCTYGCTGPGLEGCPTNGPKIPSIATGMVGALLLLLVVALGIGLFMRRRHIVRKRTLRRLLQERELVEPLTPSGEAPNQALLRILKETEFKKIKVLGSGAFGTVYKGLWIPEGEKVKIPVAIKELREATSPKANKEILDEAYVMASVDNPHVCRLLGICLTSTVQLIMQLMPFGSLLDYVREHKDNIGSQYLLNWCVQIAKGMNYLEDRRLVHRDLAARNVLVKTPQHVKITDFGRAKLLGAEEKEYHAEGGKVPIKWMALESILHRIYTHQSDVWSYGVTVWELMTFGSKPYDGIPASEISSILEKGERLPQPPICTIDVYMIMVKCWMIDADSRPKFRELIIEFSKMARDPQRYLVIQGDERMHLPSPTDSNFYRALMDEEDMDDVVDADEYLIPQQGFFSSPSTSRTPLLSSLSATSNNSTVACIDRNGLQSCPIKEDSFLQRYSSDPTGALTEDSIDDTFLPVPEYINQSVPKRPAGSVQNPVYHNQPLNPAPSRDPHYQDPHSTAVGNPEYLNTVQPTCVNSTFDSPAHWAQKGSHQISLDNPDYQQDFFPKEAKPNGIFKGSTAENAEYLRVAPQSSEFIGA
Sequence of EGFR L858R/C797S (P00533 25-1210 C797S/L858R): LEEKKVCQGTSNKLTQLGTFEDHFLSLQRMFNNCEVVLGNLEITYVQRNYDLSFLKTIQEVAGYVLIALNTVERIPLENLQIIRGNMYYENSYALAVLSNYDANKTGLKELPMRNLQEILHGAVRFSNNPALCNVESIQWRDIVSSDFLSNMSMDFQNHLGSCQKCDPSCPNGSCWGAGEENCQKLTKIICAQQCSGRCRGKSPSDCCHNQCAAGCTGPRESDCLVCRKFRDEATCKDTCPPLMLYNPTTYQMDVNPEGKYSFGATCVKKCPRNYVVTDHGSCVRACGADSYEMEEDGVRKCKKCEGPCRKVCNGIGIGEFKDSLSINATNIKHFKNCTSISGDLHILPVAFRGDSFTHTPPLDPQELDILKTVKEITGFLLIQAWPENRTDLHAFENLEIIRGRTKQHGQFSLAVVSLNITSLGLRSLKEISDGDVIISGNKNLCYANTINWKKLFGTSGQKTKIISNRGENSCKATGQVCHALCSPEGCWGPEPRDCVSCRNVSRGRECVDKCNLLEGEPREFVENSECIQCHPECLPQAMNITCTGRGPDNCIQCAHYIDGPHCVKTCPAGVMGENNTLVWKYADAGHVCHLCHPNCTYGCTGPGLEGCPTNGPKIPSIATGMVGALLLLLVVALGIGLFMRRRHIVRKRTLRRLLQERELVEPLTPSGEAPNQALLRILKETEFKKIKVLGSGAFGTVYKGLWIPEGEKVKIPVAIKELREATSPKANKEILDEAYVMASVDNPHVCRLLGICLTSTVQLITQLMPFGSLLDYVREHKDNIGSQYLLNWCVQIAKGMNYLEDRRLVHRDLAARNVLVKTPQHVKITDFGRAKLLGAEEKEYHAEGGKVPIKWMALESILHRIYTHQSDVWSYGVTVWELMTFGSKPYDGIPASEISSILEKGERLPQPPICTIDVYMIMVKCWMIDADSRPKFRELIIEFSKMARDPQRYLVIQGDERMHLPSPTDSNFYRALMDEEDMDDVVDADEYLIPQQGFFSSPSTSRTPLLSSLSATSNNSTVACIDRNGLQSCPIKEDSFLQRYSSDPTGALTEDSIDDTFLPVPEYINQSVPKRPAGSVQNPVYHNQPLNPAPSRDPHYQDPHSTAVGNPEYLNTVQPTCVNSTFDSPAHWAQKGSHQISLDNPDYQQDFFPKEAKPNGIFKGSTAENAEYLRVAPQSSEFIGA

Regarding `O=S(=O)(C1CC1)n1cc(-c2nccc(Nc3cc(N[C@H]4CCC[C@H](O)C4)c(C#Cc4cnn(C(F)(F)F)c4)cn3)n2)cn1` [Example 103, (1 S,3S)-3-((2-((2-(1-(Cyclopropylsulfonyl)-1H-pyrazol-4-yl)pyrimidin-4-yl)amino)-5-((1-(trifluoromethyl)-1H-pyrazol-4-yl)ethynyl)pyridin-4-yl)amino)cyclohexan-1-ol], the IC50 was over 10000 nM in test [1] (IC50 WT (nM), 100 μM ATP); 1070 nM in test [1] (Km ATP, read-out: IC50 WT (nM) Km ATP); 8.5 nM in test [2] (setting [6]); 2.8 nM in test [2] (Km ATP, read-out: IC50 L858R/T790M/C797S (nM) Km ATP); 3.5 nM in test [3] (setting [7]); 2.7 nM in test [3] (Km ATP, read-out: IC50 Del19/T790M/C797S (nM) Km ATP). The IC50 in test [4] (setting [8]) turned out to be 1230 nM; in test [4] (Km ATP, read-out: IC50 L858R/C797S (nM) Km ATP), 104 nM; in test [5] (setting [9]), 87.3 nM; in test [5] (Km ATP, read-out: IC50 Del19/C797S (nM) Km ATP), 66.8 nM.

`CN(C)CCC1CCN(c2cc(Nc3ccnc(-c4cnn(S(=O)(=O)C5CC5)c4)n3)ncc2C#CC2CCO[C@H]2C(F)(F)F)CC1` (stereo partly drawn) [Example 419, 2-(1-(Cyclopropylsulfonyl)-1H-pyrazol-4-yl)-N-(4-(4-(2-(dimethylamino)ethyl)piperidin-1-yl)-5-(((2R)-2-(trifluoromethyl)tetrahydrofuran-3-yl)ethynyl)pyridin-2-yl)pyrimidin-4-amine]: the IC50 was over 10000 nM in test [1] (IC50 WT (nM), 100 μM ATP); 31 nM in test [1] (setting [10]); 1.5 nM in test [2] (setting [6]); 0.4 nM in test [2] (setting [11]); 1 nM in test [3] (setting [7]); 1.1 nM in test [3] (setting [12]). For the same molecule, the IC50 in test [4] (setting [8]) turned out to be 97.5 nM; in test [4] (setting [13]) it was 7.1 nM; in test [5] (setting [9]), 4.8 nM; in test [5] (setting [14]), 3.9 nM.

In the case of `O=S(=O)(C1CC1)n1cc(-c2nccc(Nc3cc(NC4CCC(O)CC4)c(C#CC4(O)CCOC4)cn3)n2)cn1` (centres unmarked) [Example 356, 3-((6-((2-(1-(Cyclopropylsulfonyl)-1H-pyrazol-4-yl)pyrimidin-4-yl)amino)-4-(((1 s, 4s)-4-hydroxycyclohexyl)amino)pyridin-3-yl)ethynyl)tetrahydrofuran-3-ol], the IC50 in test [1] (IC50 WT (nM), 100 μM ATP) was found to be 5310 nM; in test [1] (setting [10]), 20.1 nM; in test [2] (setting [6]) it was 0.3 nM; in test [2] (setting [11]), 0.1 nM; in test [3] (setting [7]) it was 0.2 nM; in test [3] (setting [12]) it was 0.2 nM. The IC50 in test [4] (setting [8]) stood at 24.5 nM; in test [4] (setting [13]), 2 nM; in test [5] (setting [9]), 0.9 nM; in test [5] (setting [14]) it was 0.6 nM.

With `Cn1cc(C#Cc2cnc(Nc3ccnc(-c4cnn(S(=O)(=O)C5CC5)c4)n3)cc2N2CCCC(O)C2)cn1` (centres unmarked) [Example 6, 1-(2-((2-(1-(Cyclopropylsulfonyl)-1H-pyrazol-4-yl)pyrimidin-4-yl)amino)-5-((1-methyl-1H-pyrazol-4-yl)ethynyl)pyridin-4-yl)piperidin-3-ol], the IC50 in test [1] (IC50 WT (nM), 100 μM ATP) worked out at 6020 nM; in test [2] (setting [6]) it was 4.2 nM; in test [3] (setting [7]), 0.5 nM; in test [4] (setting [8]) it was 24.1 nM; in test [5] (setting [9]), 5.1 nM.

For the molecule `CC1(CO)CCN(c2cc(Nc3ccnc(-c4cnn(S(=O)(=O)C5CC5)c4)n3)ncc2C#CCC2(O)COC2)CC1` [Example 286, 3-(3-(6-((2-(1-(Cyclopropylsulfonyl)-1H-pyrazol-4-yl)pyrimidin-4-yl)amino)-4-(4-(hydroxymethyl)-4-methylpiperidin-1-yl)pyridin-3-yl)prop-2-yn-1-yl)oxetan-3-ol], the IC50 in test [1] (IC50 WT (nM), 100 μM ATP) came out at 4300 nM; in test [2] (setting [6]) it was 0.4 nM; in test [3] (setting [7]), 0.1 nM; in test [4] (setting [8]), 13.5 nM; in test [5] (setting [9]), 2.2 nM.

With `CN(C)CCC1CCN(c2cc(Nc3ccnc(-c4cnn(S(=O)(=O)C5CC5)c4)n3)ncc2C#Cc2cnn(CC(F)F)c2)CC1` [Example 303, 2-(1-(Cyclopropylsulfonyl)-1H-pyrazol-4-yl)-N-(5-((1-(2,2-difluoroethyl)-1H-pyrazol-4-yl)ethynyl)-4-(4-(2-(dimethylamino)ethyl)piperidin-1-yl)pyridin-2-yl)pyrimidin-4-amine], the IC50 in test [1] (ATP at Km, read-out: IC50 WT (nM), Km ATP) amounted to 1.4 nM; in test [1] (IC50 WT (nM), 100 μM ATP), 206 nM; in test [2] (ATP at Km, read-out: IC50 L858R/T790M/C797S (nM), Km ATP), 0.1 nM; in test [2] (setting [6]) it was 0.2 nM; in test [3] (ATP at Km, read-out: IC50 Del19/T790M/C797S (nM), Km ATP), 0.1 nM; in test [3] (setting [7]), 0.3 nM. Besides, the IC50 in test [4] (ATP at Km, read-out: IC50 L858R/C797S (nM), Km ATP) is 0.6 nM; in test [4] (setting [8]), 3.4 nM; in test [5] (ATP at Km, read-out: IC50 Del19/C797S (nM), Km ATP) it was 0.4 nM; in test [5] (setting [9]) it was 0.3 nM.
